# Results: patent US11523995B2, “Compositions and methods for ablating niche cells in testis and other epithelial cells and methods relating thereto” (Duke University, priority 2017, dated 2022)
# System: Sertoli cells
# Assay: Inhibition of in vitro Sertoli cell ablation with BC by cell death pathway inhibitors
# Format: cell-based, mouse
# Conditions: 30 min inhibitor pre-treatment, 10 min BC, culture with inhibitor 4 days, neonatal testis
# Method: Fragments of the mouse testis were incubated with 0.02% BC for 10 min. After washing several times with PBS, tissues were placed atop 1.5% agarose blocks (214530; Difco), prepared and placed in 6 well tissue culture plates (353046; Falcon) with ˜500 μl of 10% FBS+DMEM (11995-065; Gibco) to reach halfway up the side of the block. After culture, tissues were washed in PBS and fixed for immunofluorescence. The dog testis tissues were incubated with 0.02% or 0.03% BC for 10 min and cultured with 10% KnockOut Serum Replacement (KSR) (Invitrogen; 10828-028)+DMEM (Yokonishi, T., et al. Methods in Molecular Biology 927: 479-488 (2013)). The culture incubator was supplied with 5% (vol/vol) carbon dioxide in air and maintained at 37° C. Q-VD (OMe)-OPh (A8165; ApexBio), Necrostatin-1, Spautin-1 (Sigma; SML0440), 3-Methyladenine (Cayman; CAS 5142-23-4), LY294002 (Cayman; CAS 154447-36-6), Bafilomycin A1 (Cayman; CAS88899-55-2) were used as cell death inhibitors. Next, we investigated the Sertoli cell death pathway caused by BC treatment. Testes from neonatal pups were pre-treated with 1% DMSO (as a control) or with cell death pathway inhibitors, pan-caspase inhibitor, 2,6-difluorophenoxymethylketone-based inhibitor (Q-VD-OPH), necrosis inhibitor (Necrostatin-1) and autophagy inhibitors, Spautin-1, LY294002, or Bafilomycin A1, for 30 min. Pre-treatments were followed by a 10 min BC treatment, washing, and culture in the presence of the inhibitor for 4 days (FIG. 3).
row,SMILES,rescue of Sertoli cells after BC treatment
1,Fc1ccc(CNc2ncnc3ccc(F)cc23)cc1 [Spautin-1],partially rescued Sertoli cells
2,"Cn1cnc(N)c2ncnc1-2 [3MA, 3-Methyladenine]",partially rescued Sertoli cells
3,CN1C(=O)C(Cc2c[nH]c3ccccc23)NC1=S (centres unmarked) [Necrostatin-1],did not rescue Sertoli cells
4,COC(=O)C[C@H](NC(=O)[C@@H](NC(=O)c1ccc2ccccc2n1)C(C)C)C(=O)COc1c(F)cccc1F [Q-VD-OPH],did not rescue Sertoli cells
5,CO/C1=C\C(C)=C\[C@@H](C)[C@@H](O)[C@@H](C)C/C(C)=C/C=C/[C@H](OC)[C@@H]([C@@H](C)[C@@H](O)[C@H](C)[C@@]2(O)C[C@@H](O)[C@H](C)[C@@H](C(C)C)O2)OC1=O [Bafilomycin A1],partially rescued Sertoli cells
